From patent US6867320B2, “Substituted phenylalkanoic acid derivatives and use thereof” (Asahi Kasei Pharma Corporation, priority 2002, dated 2005)

Legend:
[1] = tested on: PGE2 production from IL-1β-stimulated MG-63 cells; experiment: Suppressing action on PGE2 production from IL-1β-stimulated MG-63 cells; type: cell-based; conditions: Homo sapiens, IL-1β 1 ng/ml, 18 hours, read-out: PGE2 production suppression ratio
Summary of the method: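 PGE2 in 18 h supernatants was quantified by EIA and expressed as % suppression relative to IL-1β-only and unstimulated controls. Cells were the MG-63 osteosarcoma line, plated at 2×10^4/well, given compound in 0.5% FBS EMEM, then 1 ng/ml IL-1β final.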

[2] = tested on: IgE-stimulated footpad edema; experiment: Mouse IgE-stimulated footpad edema reaction; type: in vivo; conditions: C57BL/6 male mice, oral 0.1 to 500 mg/kg, compared with positive control group
Method: 4. Suppressing Effect on Mouse IgE-stimulated Footpad Edema Reaction
Suppression on footpad edema caused by IgE antibody as an allergic stimulant was studied by the following method. Groups of C57BL/6 male mice (9- to 11-week old) each consisting of five mice were used for the test. Anti-DNP-BSA IgE serum was subcutaneously administered in a volume of 20 μl to right hind leg footpad of each mouse one day before the test. A test compound was suspended or dissolved in purified water containing 0.5% methylcellulose and orally administered to the test animals at 0.1 to 500 mg/0.2 ml/kg. To the control group, purified water containing 0.5% methylcellulose was administered in a similar manner, which was not added with the test compound. Two hours after the administration of the test compound, 0.2 ml of a solution of DNP-BSA dissolved in physiological saline (Otsuka Pharmaceutical) at 2.5 μg/ml was intravenously administered. The thickness of right hind leg footpad was measured by using a digital thickness gauge (MITSUTOYO) 10, 15, 20, and 30 minutes after the administration of DNP-BSA. A difference of the thickness of footpad measured above and the thickness before the administration of the test compound measured beforehand was regarded as a thickness of edema.
For the thickness of the edema at 10, 15, 20 and 30 minutes after the DNP-BSA administration, a graph was prepared indicating time in abscissa and the edema thickness in ordinate, and edema thickness AUC […] was obtained by calculation according to the following equation. Edema thickness AUC (mm·minute)=1/2×10×A+5×(A+B)/2+5×(B+C)/2+10×(C+D)/2 • A: Edema thickness 10 minutes after DNP-BSA administration • B: Edema thickness 15 minutes after DNP-BSA administration • C: Edema thickness 20 minutes after DNP-BSA administration • D: Edema thickness 30 minutes after DNP-BSA administration
A suppressing ratio on edema of a test compound was obtained by calculation in accordance with the following equation. Edema suppression ratio (%)=[1−B/A]×100 • A: Edema thickness AUC of positive control • B: Edema thickness AUC of test compound administered group (2) Measurement Results

[3] = tested on: LTB4 production from IgE-stimulated RBL-2H3 cells; experiment: Suppressing action on LTB4 production from IgE-stimulated RBL-2H3 cells; type: cell-based; conditions: Rattus norvegicus, 10 min, IgE/DNP-BSA stimulated RBL-2H3 cells, read-out: LTB4 production suppression ratio
Excerpt: (§1) 2. Suppressing Action on PGD2 and LTB4 Production from IgE-Stimulated RBL-2H3 Cells
(§2) Suppressing action on PGD2 and LTB4 production caused by IgE as an allergic stimulant was investigated by the following method. Cells of RBL-2H3, which is a rat mastocytoma cell line (purchased from ATCC), were suspended in DEMEM medium (GIBCO) containing 10% fetal bovine serum (BioFluid), inoculated to each well of 48-well culture plate at a density of 2×10^4 cells/well and cultured overnight. Then, IgE antiserum directed to dinitrophenylated BSA (henceforth DNP-BSA) was further added to each well, and the cells were cultured for 30 minutes. Then, the medium was changed to DEMEM medium containing 0.5% fetal bovine serum, a test compound was added with each well, and DNP-BSA was further added at a final concentration of 100 ng/ml as a stimulant. Ten minutes after the stimulant was added, the culture supernatant was collected, and the PGD2 concentration and LTB4 concentration in the culture supernatant were measured by using EIA kit (CAYMAN). By using a well which was not added with the stimulant as a negative control and a well which was added only with the stimulant as a positive control, suppressing ratios on mediator production were calculated from the production amounts of the mediators in the well added with the test compound using the following equation. PGD2 or LTB4 production suppression ratio=[1−(C−B)/(A−B)]×100 • A: PGD2 or LTB4 production amount of positive control • B: PGD2 or LTB4 production amount of negative control • C: PGD2 or LTB4 production amount in well added with test compound
(§3) Further, as control compounds for comparison, reference compound (1), 3-(2-cyclohexylmethyloxy-1,1′-biphenyl-5-yl)propionic acid described in WO99/19291, reference compounds (2) and (3), [2-(5,6,7,8-tetrahydro-5,5,8,8-tetramethyl-2-naphthalenyl)methyloxy-1,1′-biphenyl-5-yl]carboxylic acid [reference compound (2)] and 3-[3′-carboxy-2-(5,6,7,8-tetrahydro-5,5,8,8-tetramethyl-2naphthalenyl)methyloxy-1,1′-biphenyl-6-yl]propionic acid [reference compound (3)] described in U.S. Pat. No. 5,391,817 and Japanese Patent Unexamined Publication (Kokai) No. 7-22399, respectively, were used, and activities thereof were similarly measured.

[4] = tested on: PGD2 production from IgE-stimulated RBL-2H3 cells; experiment: Suppressing action on PGD2 production from IgE-stimulated RBL-2H3 cells; type: cell-based; conditions: Rattus norvegicus, 10 min, IgE/DNP-BSA stimulated RBL-2H3 cells, read-out: PGD2 production suppression ratio
Excerpt: as §1, §2, §3

[5] = tested on: zymosan-stimulated footpad edema; experiment: Mouse zymosan-stimulated footpad edema reaction; type: in vivo; conditions: ICR female mice, oral 0.1 to 500 mg/kg, compared with positive control group
Method: 3. Suppressing Effect on Mouse Zymosan-stimulated Footpad Edema Reaction A suppressing effect on footpad edema caused by zymosan as an inflammatory stimulant was studied by the following method. Groups of ICR female mice (6- to 7-week old) each consisting of eight mice were used for the test. A test compound was suspended or dissolved in purified water containing 0.5% methylcellulose and orally administered to the test animals at 0.1 to 500 mg/0.2 ml/kg. To the control group, purified water containing 0.5% methylcellulose was administered in a similar manner, which was not added with a test compound. One hour after the administration of the test compound, 0.02 ml of a suspension of zymosan suspended in physiological saline (Otsuka Pharmaceutical) at 1 mg/ml was subcutaneously administered to right hind leg footpad of each mouse. One and two hours after the administration of the zymosan suspension, volume of the right hind leg footpad was measured by using an apparatus for measuring a volume of mouse hind leg footpad edema (Unicom). A difference of the volume of footpad measured above and the footpad volume before the administration of the test compound measured beforehand was regarded as a volume of the edema. For the volume of the edema at 1 hour or 2 hours after the zymosan administration, a graph was prepared by indicating time in abscissa and the edema volume in ordinate, and an edema volume AUC (area under the curve) was obtained up to 2 hours by calculation using the following equation. Edema volume AUC (1·hour)=1/2×1×A+1×(A+B)/2 • A: Edema volume 1 hour after zymosan administration • B: Edema volume 2 hour after zymosan administration A suppression ratio on edema of test compound was obtained by calculation using the following equation. Edema suppression ratio (%)=[1−B/A]×100 • A: Edema volume AUC of positive control • B: Edema volume AUC of test compound administered group (2) Measurement Results

| Compound | inhibition at 0.4 µM [1] [%] | suppression of footpad edema caused by IgE stimulation [2] | inhibition at 0.4 µM [3] [%] | inhibition at 0.4 µM [4] [%] | suppression of footpad edema caused by zymosan [5] |
| --- | --- | --- | --- | --- | --- |
| O=C(O)CCc1ccc(OCCc2ccc(Cl)cc2)c(-c2ccc3[nH]ccc3c2)c1 [Compound 213, 3-{4-[2-(4-chlorophenyl)ethyloxy]-3-(1H-indol-5-yl)phenyl}propionic acid] | ≥ 50 | suppressed the footpad edema |  |  |  |
| O=C(O)CCc1ccc(OCc2ccc3ccccc3c2)c(-c2ccc3[nH]ccc3c2)c1 [Compound 192, 3-{3-(1H-indol-5-yl)-4-[(Naphthalen-2-yl)methyloxy]phenyl}propionic acid] | ≥ 50 | suppressed the footpad edema |  |  |  |
| O=C(O)CCc1ccc(OCc2ccccc2)c(-c2ccc3[nH]ccc3c2)c1 [Compound 325, 3-[4-benzyloxy-3-(1H-indol-5-yl)phenyl]propionic acid] | ≥ 50 | suppressed the footpad edema |  |  |  |
| O=C(O)CCc1ccc(OCc2ccc(F)cc2F)c(-c2ccc3[nH]ccc3c2)c1 [Compound 156, 3-[4-(2,4-difluorophenylmethyloxy)-3-(1H-indol-5-yl)phenyl]propionic acid] | ≥ 50 | suppressed the footpad edema |  |  |  |
| O=C(O)CCc1ccc(OCc2ccc(Cl)cc2)c(-c2ccc3[nH]ccc3c2)c1 [Compound 152, 3-[4-(4-chlorophenylmethyloxy)-3-(1H-indol-5-yl)phenyl]propionic acid] | ≥ 50 |  | ≥ 50 | ≥ 50 | suppressed footpad edema |
| O=C(O)CCc1ccc(OCc2ccc(F)c(F)c2)c(-c2ccc3[nH]ccc3c2)c1 [Compound 158, 3-[4-(3,4-difluorophenylmethyloxy)-3-(1H-indol-5-yl)phenyl]propionic acid] | ≥ 50 | suppressed the footpad edema |  |  |  |
| CCn1ccc2cc(-c3cc(CCC(=O)O)ccc3OC3CCCC3)ccc21 [Compound 246, 3-[4-cyclopentyloxy-3-(1-ethyl-1H-indol-5-yl)phenyl]propionic acid] | ≥ 50 |  | ≥ 50 | ≥ 50 | suppressed footpad edema |
| O=C(O)CCc1ccc(OCc2cccc(Cl)c2)c(-c2ccc3[nH]ccc3c2)c1 [Compound 150, 3-[4-(3-chlorophenylmethyloxy)-3-(1H-indol-5-yl)phenyl]propionic acid] | ≥ 50 |  | ≥ 50 | ≥ 50 | suppressed footpad edema |
| O=C(O)CCc1ccc(OCc2ccccc2Br)c(-c2ccc3[nH]ccc3c2)c1 [Compound 154, 3-[4-(2-bromophenylmethyloxy)-3-(1H-indol-5-yl)phenyl]propionic acid] | ≥ 50 |  | ≥ 50 | ≥ 50 | suppressed footpad edema |
| Nc1cc(CCC(=O)O)cc(-c2ccc3ccccc3c2)c1OCC1CCCC1 [Compound 095, 3-[3-amino-4-cyclopentylmethyloxy-5-(naphthalen-2-yl)phenyl]propionic acid] | ≥ 50 |  | ≥ 50 | ≥ 50 | suppressed footpad edema |
| O=C(O)CCc1ccc(OCc2ccccc2F)c(-c2ccc3[nH]ccc3c2)c1 [Compound 142, 3-[4-(2-fluorophenylmethyloxy)-3-(1H-indol-5-yl)phenyl]propionic acid] | ≥ 50 |  | ≥ 50 | ≥ 50 | suppressed footpad edema |
| O=C(O)CCc1ccc(OCCc2ccccc2)c(-c2ccc3ccccc3c2)c1 [Compound 051, 3-[3-(naphthalen-2-yl)-4-(2-phenylethyloxy)phenyl]propionic acid] | ≥ 50 | suppressed the footpad edema |  |  |  |
| Cc1ccc(CCOc2ccc(CCC(=O)O)cc2-c2ccc3[nH]ccc3c2)cc1 [Compound 204, 3-{3-(1H-indol-5-yl)-4-[2-(4-methylphenyl)ethyloxy]phenyl}propionic acid] | ≥ 50 |  | ≥ 50 | ≥ 50 | suppressed footpad edema |
| Cn1ccc2cc(-c3cc(CCC(=O)O)ccc3OC3CCCCC3)ccc21 [Compound 110, 3-[4-cyclohexyloxy-3-(1-methyl-1H-indol-5-yl)phenyl]propionic acid] | ≥ 50 |  | ≥ 50 | ≥ 50 | suppressed footpad edema |
| O=C(O)CCc1ccc(OC2CCCC2)c(-c2ccc3[nH]ccc3c2)c1 [Compound 102, 3-[4-cyclopentyloxy-3-(1H-indol-5-yl)phenyl]propionic acid] | ≥ 50 |  | ≥ 50 | ≥ 50 | suppressed footpad edema |
| Nc1cc(CCC(=O)O)cc(-c2ccc3[nH]ccc3c2)c1OCC1CCCC1 [Compound 266, 3-[3-amino-4-cyclopentylmethyloxy-5-(1H-indol-5-yl)phenyl]propionic acid] | ≥ 50 | suppressed the footpad edema |  |  |  |
